Patent US20110152313A1 (MACQUARIE UNIVERSITY, priority 2008, published 2011)

Columns and labels:
Test in all cases: kinase binding screen (kinase-tagged T7 phage, qPCR), % Ctrl
CAMKK1 = CAMKK1 (Homo sapiens, UniProt Q8N5S9)
Description: (§1) Percentage kinase inhibition at a set concentration was performed by methods well known in the prior art (Fabian, M. A. et al. Nat. Biotechnol. 2005, 23, 329; Karaman et al. (2008) Nat. Biotechnol. […], 26, 127). Briefly, kinase-tagged T7 phage strains were grown in parallel in 24-well blocks in an E. coli host derived from the BL21 strain. E. coli were grown to log-phase and infected with T7 phage from a frozen stock (multiplicity of infection=0.4) and incubated with shaking at 32° C. until lysis (90-150 minutes). The lysates were centrifuged (6,000×g) and filtered (0.2 μm) to remove cell debris. […] The liganded beads were blocked with excess biotin and washed with blocking buffer (SeaBlock (Pierce); 1% BSA, 0.05% Tween 20, 1 mM DTT) to remove unbound ligand and to reduce non-specific phage binding. […] Test compounds were prepared as 40× stocks in 100% DMSO and directly diluted into the assay. All reactions were performed in polypropylene 384-well plates in a final volume of 0.04 mL. […] The kinase concentration in the eluates was measured by qPCR.

YANK2 = YANK2 (Homo sapiens, UniProt Q9NY57)
Sequence of YANK2 (Q9NY57 whole entry): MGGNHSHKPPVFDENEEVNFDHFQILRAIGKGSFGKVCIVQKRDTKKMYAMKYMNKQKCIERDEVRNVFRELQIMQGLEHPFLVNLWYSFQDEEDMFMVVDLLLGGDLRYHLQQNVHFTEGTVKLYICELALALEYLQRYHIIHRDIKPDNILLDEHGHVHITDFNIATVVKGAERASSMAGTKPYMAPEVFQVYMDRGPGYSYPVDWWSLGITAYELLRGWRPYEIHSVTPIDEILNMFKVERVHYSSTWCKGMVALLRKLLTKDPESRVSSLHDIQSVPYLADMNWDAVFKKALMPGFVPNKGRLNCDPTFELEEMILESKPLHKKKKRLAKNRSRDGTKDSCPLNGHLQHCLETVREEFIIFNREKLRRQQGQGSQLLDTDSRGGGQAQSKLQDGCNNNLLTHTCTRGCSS
Description: as §1

GAK = target: T1, GAK (Homo sapiens, UniProt O14976)
T1 sequence (O14976 1-1311): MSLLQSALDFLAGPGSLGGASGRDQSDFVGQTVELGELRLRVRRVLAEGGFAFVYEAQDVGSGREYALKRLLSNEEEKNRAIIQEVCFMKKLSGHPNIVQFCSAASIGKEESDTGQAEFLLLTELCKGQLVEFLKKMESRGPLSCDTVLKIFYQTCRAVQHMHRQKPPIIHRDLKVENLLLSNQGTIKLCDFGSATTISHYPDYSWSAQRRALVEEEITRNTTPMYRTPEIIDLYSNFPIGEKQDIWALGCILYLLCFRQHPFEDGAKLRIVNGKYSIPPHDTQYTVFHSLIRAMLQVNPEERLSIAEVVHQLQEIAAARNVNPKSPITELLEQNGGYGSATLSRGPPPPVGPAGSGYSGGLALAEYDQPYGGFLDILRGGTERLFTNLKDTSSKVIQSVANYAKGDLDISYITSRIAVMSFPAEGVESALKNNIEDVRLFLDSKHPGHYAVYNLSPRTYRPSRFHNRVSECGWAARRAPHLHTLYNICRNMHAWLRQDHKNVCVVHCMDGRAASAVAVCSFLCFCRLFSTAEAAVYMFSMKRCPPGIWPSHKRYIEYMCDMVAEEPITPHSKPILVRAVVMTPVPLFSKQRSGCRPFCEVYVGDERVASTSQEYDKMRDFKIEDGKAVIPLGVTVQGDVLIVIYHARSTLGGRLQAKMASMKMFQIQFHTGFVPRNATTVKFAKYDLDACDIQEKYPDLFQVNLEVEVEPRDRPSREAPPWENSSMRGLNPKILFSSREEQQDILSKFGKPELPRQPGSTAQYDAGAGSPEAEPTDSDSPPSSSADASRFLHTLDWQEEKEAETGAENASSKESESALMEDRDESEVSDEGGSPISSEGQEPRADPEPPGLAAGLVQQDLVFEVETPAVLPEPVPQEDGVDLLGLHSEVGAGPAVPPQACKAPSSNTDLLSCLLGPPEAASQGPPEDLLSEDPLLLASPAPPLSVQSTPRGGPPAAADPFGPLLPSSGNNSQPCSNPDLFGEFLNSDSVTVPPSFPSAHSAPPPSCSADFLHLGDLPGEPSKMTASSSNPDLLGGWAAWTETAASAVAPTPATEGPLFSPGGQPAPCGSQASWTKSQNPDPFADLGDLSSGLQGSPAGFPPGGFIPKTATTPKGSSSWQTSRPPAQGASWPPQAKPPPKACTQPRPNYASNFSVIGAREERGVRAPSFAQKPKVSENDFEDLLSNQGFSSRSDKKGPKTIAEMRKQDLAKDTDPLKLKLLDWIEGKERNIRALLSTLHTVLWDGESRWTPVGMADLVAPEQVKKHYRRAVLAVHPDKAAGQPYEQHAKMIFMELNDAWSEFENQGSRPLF
Description: as §1

PIM2 = PIM2 (Homo sapiens, UniProt Q9P1W9)
Sequence of PIM2 (Q9P1W9 whole entry, species assumed): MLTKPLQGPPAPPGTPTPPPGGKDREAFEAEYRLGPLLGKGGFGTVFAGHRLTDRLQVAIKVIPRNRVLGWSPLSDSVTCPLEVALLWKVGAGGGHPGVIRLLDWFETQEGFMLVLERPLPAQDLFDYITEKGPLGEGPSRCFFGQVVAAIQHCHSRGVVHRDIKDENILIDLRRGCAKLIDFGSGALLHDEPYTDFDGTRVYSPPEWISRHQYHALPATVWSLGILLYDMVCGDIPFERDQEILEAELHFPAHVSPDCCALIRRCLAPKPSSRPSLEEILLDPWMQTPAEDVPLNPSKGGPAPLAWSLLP
Description: as §1

Sequence of CAMKK1 (Q8N5S9 whole entry): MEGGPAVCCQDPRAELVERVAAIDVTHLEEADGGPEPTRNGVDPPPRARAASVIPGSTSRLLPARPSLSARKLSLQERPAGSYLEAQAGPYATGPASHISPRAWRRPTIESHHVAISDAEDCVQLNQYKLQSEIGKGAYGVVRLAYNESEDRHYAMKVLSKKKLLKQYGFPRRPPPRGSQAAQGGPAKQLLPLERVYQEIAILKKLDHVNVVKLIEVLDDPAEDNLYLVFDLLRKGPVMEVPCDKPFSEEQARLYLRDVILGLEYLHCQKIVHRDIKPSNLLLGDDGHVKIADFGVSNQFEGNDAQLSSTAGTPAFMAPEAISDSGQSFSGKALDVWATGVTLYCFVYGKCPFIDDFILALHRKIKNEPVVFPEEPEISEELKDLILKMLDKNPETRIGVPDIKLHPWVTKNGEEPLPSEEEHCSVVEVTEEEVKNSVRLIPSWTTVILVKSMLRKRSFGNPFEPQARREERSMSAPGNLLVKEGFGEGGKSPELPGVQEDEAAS

| SMILES | remaining activity at 1 µM (CAMKK1) [%] | remaining activity at 10 µM (CAMKK1; 10 μM) [%] | remaining activity at 1 µM (YANK2) [%] | remaining activity at 10 µM (YANK2; 10 μM) [%] | remaining activity at 1 µM (GAK) [%] | remaining activity at 10 µM (GAK; 10 μM) [%] | remaining activity at 1 µM (PIM2) [%] | remaining activity at 10 µM (PIM2; 10 μM) [%] |
| --- | --- | --- | --- | --- | --- | --- | --- | --- |
| Nc1nc2c(-c3cc(Br)c(Br)[nH]3)nccc2[nH]1 [Ageladine A, ageladine A, reference compound] | 92 | 100 | 93 | 87 | 45 | 19 | 56 | 21 |
| Nc1nc2c(-c3ccccn3)nccc2[nH]1 [drawing 35, 4-(pyrid-2-yl)-1H-imidazo[4,5-c]pyridin-2-amine] | 19 | – | 89 | – | 54 | – | 100 | – |
| Nc1nc2c(-c3cnc4ccccc4c3)nccc2[nH]1 [drawing 36, 4-(quinolin-3-yl)-1H-imidazo[4,5-c]pyridin-2-amine] | 100 | – | 50 | – | 91 | – | 100 | – |
